The kinase profiling compilation of Christmann-Franck et al. (2016)

What was measured:
Assay in all cases: KINOMEscan competition binding
Details in all cases: compound 10.0 µM
TEC (human) = TEC (human) (UniProt P42680)
LTK (human) = LTK (human) (UniProt P29376)
RPS6KA1 KD1 (human) = RPS6KA1 KD1 (human) (UniProt Q15418)
HIPK1 (human) = HIPK1 (human) (UniProt Q86Z02)
DAPK1 (human) = DAPK1 (human) (UniProt P53355)
MAPK10 (human) = MAPK10 (human) (UniProt P53779)
MAP3K12 (human) = MAP3K12 (human) (UniProt Q12852)
MAPK1 (human) = MAPK1 (human) (UniProt P28482)
CHUK (human) = CHUK (human) (UniProt O15111)
EPHA4 (human) = EPHA4 (human) (UniProt P54764)
MELK (human) = MELK (human) (UniProt Q14680)
CAMK2A (human) = CAMK2A (human) (UniProt Q9UQM7)
CaMK1 (human) = CaMK1 (human) (UniProt Q14012)
EIF2AK2 (human) = EIF2AK2 (human) (UniProt P19525)
CSNK1D (human) = CSNK1D (human) (UniProt P48730)
AURKB (human) = AURKB (human) (UniProt Q96GD4)
PAK3 (human) = PAK3 (human) (UniProt O75914)
MAPK11 (human) = MAPK11 (human) (UniProt Q15759)
NEK9 (human) = NEK9 (human) (UniProt Q8TD19)
AKT2 (human) = AKT2 (human) (UniProt P31751)
[1] = target: TYK2 JH2 pseudokinase (human) (UniProt P29597)
PAK4 (human) = PAK4 (human) (UniProt O96013)
BRSK1 (human) = BRSK1 (human) (UniProt Q8TDC3)
WEE2 (human) = WEE2 (human) (UniProt P0C1S8)
MAP4K1 (human) = MAP4K1 (human) (UniProt Q92918)
MYLK4 (human) = MYLK4 (human) (UniProt Q86YV6)
MUSK (human) = MUSK (human) (UniProt O15146)
ERBB2 (human) = ERBB2 (human) (UniProt P04626)
SYK (human) = SYK (human) (UniProt P43405)
ITK (human) = ITK (human) (UniProt Q08881)
PDGFRB (human) = PDGFRB (human) (UniProt P09619)
MARK1 (human) = MARK1 (human) (UniProt Q9P0L2)
MLTK (human) = MLTK (human) (UniProt Q9NYL2)
DYRK1B (human) = DYRK1B (human) (UniProt Q9Y463)
FYN (human) = FYN (human) (UniProt P06241)
RPS6KA5 KD2 (human) = RPS6KA5 KD2 (human) (UniProt O75582)
STK38L (human) = STK38L (human) (UniProt Q9Y2H1)
PRKCQ (human) = PRKCQ (human) (UniProt Q04759)
CLK1 (human) = CLK1 (human) (UniProt P49759)
ACVR2B (human) = ACVR2B (human) (UniProt Q13705)

Chain of MLTK (human) (Q9NYL2 whole entry, looked up): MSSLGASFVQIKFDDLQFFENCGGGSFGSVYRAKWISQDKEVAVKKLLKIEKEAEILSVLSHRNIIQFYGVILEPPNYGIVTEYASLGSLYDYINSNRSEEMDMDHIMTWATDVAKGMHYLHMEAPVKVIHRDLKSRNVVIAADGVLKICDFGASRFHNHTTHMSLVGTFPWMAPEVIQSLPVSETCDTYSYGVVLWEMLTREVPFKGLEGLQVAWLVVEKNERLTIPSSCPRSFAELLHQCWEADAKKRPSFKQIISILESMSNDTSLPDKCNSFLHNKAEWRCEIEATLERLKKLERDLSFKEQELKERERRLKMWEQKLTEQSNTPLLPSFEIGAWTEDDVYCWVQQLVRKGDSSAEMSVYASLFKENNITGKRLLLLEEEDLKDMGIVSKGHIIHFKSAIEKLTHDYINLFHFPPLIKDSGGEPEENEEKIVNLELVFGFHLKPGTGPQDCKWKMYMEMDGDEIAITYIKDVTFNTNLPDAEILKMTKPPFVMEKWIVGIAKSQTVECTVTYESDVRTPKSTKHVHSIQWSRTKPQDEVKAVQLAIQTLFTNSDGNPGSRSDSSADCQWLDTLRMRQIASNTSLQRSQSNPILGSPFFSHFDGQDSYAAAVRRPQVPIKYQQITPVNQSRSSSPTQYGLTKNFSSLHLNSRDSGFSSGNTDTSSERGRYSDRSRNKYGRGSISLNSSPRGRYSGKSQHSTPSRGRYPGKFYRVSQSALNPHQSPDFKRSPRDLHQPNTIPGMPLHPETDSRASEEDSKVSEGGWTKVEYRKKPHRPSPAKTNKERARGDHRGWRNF
Chain of WEE2 (human) (P0C1S8 whole entry, looked up): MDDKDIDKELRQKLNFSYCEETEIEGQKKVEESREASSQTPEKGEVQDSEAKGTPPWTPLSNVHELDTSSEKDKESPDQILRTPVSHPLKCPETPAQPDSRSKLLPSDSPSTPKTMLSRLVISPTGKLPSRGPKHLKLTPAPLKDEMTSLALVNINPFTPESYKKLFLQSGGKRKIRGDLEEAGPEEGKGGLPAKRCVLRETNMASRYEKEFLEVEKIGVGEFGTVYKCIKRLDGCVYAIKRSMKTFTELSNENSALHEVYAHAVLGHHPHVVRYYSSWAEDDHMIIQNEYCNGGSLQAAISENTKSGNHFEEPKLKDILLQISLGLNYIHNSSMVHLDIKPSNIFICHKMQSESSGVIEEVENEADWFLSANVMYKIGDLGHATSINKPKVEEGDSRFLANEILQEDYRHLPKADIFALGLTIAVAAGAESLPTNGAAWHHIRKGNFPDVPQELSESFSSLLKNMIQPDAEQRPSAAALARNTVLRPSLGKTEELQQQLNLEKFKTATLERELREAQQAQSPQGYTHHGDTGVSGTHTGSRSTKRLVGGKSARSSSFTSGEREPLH
Chain of RPS6KA5 KD2 (human) (O75582 whole entry, looked up): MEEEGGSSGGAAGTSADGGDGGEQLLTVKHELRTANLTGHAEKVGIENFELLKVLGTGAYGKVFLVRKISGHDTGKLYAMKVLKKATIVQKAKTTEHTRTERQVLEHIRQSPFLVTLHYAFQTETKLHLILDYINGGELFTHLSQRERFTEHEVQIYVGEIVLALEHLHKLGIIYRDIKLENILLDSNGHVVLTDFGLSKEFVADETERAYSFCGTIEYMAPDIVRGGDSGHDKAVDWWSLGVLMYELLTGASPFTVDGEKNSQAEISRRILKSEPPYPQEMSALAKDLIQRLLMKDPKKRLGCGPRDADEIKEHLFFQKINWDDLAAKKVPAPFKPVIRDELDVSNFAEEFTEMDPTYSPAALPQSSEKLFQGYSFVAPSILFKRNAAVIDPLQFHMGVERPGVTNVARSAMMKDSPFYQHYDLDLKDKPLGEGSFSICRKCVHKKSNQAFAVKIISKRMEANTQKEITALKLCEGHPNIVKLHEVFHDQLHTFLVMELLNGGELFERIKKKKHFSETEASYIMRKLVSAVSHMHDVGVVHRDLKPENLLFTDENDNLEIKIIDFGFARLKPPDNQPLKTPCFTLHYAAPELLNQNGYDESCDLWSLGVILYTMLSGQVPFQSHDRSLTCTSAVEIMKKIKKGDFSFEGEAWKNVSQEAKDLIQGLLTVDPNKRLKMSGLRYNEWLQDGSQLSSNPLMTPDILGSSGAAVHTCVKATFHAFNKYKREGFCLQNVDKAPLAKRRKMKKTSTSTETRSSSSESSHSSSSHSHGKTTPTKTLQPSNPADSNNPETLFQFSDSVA
Chain of DAPK1 (human) (P53355 whole entry, looked up): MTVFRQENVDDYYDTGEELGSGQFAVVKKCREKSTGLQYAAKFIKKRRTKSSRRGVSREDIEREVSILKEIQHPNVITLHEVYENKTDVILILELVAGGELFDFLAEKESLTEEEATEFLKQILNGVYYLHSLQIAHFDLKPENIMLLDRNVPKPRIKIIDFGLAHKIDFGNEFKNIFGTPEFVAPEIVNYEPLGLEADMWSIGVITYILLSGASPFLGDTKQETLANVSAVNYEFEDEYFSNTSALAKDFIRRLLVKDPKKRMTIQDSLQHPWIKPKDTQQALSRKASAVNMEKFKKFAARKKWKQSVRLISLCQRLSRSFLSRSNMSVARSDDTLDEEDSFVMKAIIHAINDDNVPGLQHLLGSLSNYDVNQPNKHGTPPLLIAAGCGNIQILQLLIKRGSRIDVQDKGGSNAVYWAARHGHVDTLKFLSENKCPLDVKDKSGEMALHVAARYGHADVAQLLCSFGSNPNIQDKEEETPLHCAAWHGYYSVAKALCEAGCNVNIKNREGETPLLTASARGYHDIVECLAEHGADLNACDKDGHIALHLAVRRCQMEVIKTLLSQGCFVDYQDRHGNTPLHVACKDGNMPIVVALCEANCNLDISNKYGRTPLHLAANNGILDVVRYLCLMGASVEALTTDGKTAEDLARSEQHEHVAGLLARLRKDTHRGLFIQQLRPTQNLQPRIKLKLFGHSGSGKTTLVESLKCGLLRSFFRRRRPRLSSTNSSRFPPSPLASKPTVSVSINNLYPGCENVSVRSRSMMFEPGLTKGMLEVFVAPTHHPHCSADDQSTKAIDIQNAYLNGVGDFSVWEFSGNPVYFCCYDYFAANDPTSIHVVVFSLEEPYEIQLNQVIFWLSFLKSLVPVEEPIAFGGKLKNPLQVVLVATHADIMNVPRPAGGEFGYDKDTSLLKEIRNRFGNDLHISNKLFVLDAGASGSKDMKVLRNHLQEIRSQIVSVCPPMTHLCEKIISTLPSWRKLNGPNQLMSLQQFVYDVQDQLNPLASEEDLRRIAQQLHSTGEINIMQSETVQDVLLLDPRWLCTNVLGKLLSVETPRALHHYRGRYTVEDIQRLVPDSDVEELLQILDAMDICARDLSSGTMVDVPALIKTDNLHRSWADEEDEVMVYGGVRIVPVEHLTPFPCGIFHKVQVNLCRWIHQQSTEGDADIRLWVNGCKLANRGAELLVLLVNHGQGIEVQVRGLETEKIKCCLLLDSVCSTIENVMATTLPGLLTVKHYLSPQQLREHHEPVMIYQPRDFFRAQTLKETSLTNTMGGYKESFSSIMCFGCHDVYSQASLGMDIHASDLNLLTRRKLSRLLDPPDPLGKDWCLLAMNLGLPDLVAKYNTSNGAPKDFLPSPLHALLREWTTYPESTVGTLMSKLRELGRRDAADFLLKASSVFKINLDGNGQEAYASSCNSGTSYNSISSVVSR
Chain of TYK2 JH2 pseudokinase (human) (P29597 whole entry, looked up): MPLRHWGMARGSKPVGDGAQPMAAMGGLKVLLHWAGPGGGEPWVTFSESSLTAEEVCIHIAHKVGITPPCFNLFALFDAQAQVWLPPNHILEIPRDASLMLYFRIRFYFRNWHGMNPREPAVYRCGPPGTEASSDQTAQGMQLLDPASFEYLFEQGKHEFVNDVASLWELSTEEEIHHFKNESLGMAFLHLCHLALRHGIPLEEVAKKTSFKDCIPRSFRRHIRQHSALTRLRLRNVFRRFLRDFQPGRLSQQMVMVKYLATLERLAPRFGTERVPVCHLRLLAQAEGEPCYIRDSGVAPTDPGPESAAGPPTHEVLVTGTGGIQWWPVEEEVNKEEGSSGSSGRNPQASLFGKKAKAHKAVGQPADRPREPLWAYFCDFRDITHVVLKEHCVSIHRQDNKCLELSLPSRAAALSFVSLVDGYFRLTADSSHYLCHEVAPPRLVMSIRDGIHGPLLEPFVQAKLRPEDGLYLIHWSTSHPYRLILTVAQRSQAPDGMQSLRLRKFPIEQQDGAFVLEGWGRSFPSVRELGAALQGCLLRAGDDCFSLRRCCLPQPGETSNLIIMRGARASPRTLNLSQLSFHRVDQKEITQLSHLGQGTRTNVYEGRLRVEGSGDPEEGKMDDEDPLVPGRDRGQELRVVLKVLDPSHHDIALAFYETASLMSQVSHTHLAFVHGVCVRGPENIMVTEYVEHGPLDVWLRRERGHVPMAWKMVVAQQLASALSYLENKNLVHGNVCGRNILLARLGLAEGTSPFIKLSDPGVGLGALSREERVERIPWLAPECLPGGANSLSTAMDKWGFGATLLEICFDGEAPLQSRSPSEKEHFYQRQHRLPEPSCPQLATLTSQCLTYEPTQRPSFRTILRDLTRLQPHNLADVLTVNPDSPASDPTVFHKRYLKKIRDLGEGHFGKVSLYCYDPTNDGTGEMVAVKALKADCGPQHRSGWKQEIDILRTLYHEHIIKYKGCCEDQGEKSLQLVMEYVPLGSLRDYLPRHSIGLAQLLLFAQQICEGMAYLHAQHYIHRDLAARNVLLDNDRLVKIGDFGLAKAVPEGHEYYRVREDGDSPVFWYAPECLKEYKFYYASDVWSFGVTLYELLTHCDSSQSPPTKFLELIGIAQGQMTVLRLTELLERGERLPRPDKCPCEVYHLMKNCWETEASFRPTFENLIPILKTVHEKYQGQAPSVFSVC

SMILES | kinase still bound, per cent of control (TEC (human)) [%] | kinase still bound, per cent of control (LTK (human)) [%] | kinase still bound, per cent of control (RPS6KA1 KD1 (human)) [%] | kinase still bound, per cent of control (HIPK1 (human)) [%] | kinase still bound, per cent of control (DAPK1 (human)) [%] | kinase still bound, per cent of control (MAPK10 (human)) [%] | kinase still bound, per cent of control (MAP3K12 (human)) [%] | kinase still bound, per cent of control (MAPK1 (human)) [%] | kinase still bound, per cent of control (CHUK (human)) [%] | kinase still bound, per cent of control (EPHA4 (human)) [%] | kinase still bound, per cent of control (MELK (human)) [%] | kinase still bound, per cent of control (CAMK2A (human)) [%] | kinase still bound, per cent of control (CaMK1 (human)) [%] | kinase still bound, per cent of control (EIF2AK2 (human)) [%] | kinase still bound, per cent of control (CSNK1D (human)) [%] | kinase still bound, per cent of control (AURKB (human)) [%] | kinase still bound, per cent of control (PAK3 (human)) [%] | kinase still bound, per cent of control (MAPK11 (human)) [%] | kinase still bound, per cent of control (NEK9 (human)) [%] | kinase still bound, per cent of control (AKT2 (human)) [%] | also measured
O=C1Nc2ccc(I)cc2/C1=C/c1cc(Br)c(O)c(Br)c1 | 100 | 47 | 42 | 11 | 6.2 | 60 | 80 | 87 | 100 | 100 | 99 | 20 | 70 | 75 | 72 | 9.4 | 100 | 88 | 100 | 90 | kinase still bound, per cent of control [1]: 100%; kinase still bound, per cent of control (PAK4 (human)): 82%; kinase still bound, per cent of control (BRSK1 (human)): 85%; kinase still bound, per cent of control (WEE2 (human)): 94%; kinase still bound, per cent of control (MAP4K1 (human)): 71%; kinase still bound, per cent of control (MYLK4 (human)): 14%; kinase still bound, per cent of control (MUSK (human)): 74%; kinase still bound, per cent of control (ERBB2 (human)): 94%; kinase still bound, per cent of control (SYK (human)): 78%; kinase still bound, per cent of control (ITK (human)): 96%; kinase still bound, per cent of control (PDGFRB (human)): 5.5%; kinase still bound, per cent of control (MARK1 (human)): 99%; kinase still bound, per cent of control (MLTK (human)): 84%; kinase still bound, per cent of control (DYRK1B (human)): 41%; kinase still bound, per cent of control (FYN (human)): 52%; kinase still bound, per cent of control (RPS6KA5 KD2 (human)): 63%; kinase still bound, per cent of control (STK38L (human)): 31%; kinase still bound, per cent of control (PRKCQ (human)): 90%; kinase still bound, per cent of control (CLK1 (human)): 34%; kinase still bound, per cent of control (ACVR2B (human)): 83%
CCOc1cc2ncc(C#N)c(Nc3ccc(OCc4ccccn4)c(Cl)c3)c2cc1NC(=O)/C=C/CN(C)C | 73 | 100 | 57 | 71 | 98 | 27 | 36 | 100 | 81 | 96 | 55 | 90 | 88 | 100 | 60 | 75 | 100 | 100 | 100 | 99 | kinase still bound, per cent of control [1]: 99%; kinase still bound, per cent of control (PAK4 (human)): 93%; kinase still bound, per cent of control (BRSK1 (human)): 95%; kinase still bound, per cent of control (WEE2 (human)): 98%; kinase still bound, per cent of control (MAP4K1 (human)): 45%; kinase still bound, per cent of control (MYLK4 (human)): 86%; kinase still bound, per cent of control (MUSK (human)): 100%; kinase still bound, per cent of control (ERBB2 (human)): 0%; kinase still bound, per cent of control (SYK (human)): 65%; kinase still bound, per cent of control (ITK (human)): 52%; kinase still bound, per cent of control (PDGFRB (human)): 69%; kinase still bound, per cent of control (MARK1 (human)): 94%; kinase still bound, per cent of control (MLTK (human)): 70%; kinase still bound, per cent of control (DYRK1B (human)): 99%; kinase still bound, per cent of control (FYN (human)): 84%; kinase still bound, per cent of control (RPS6KA5 KD2 (human)): 77%; kinase still bound, per cent of control (STK38L (human)): 100%; kinase still bound, per cent of control (PRKCQ (human)): 100%; kinase still bound, per cent of control (CLK1 (human)): 84%; kinase still bound, per cent of control (ACVR2B (human)): 100%
Cc1ccc(C(=O)Nc2cccc(C(F)(F)F)c2)cc1Nc1cncc(C(N)=O)c1 | 100 | 100 | 100 | 100 | 100 | 100 | 100 | 100 | 100 | 6.8 | 100 | 100 | 100 | 100 | 100 | 100 | 100 | 100 | 100 | 100 | kinase still bound, per cent of control [1]: 100%; kinase still bound, per cent of control (PAK4 (human)): 100%; kinase still bound, per cent of control (BRSK1 (human)): 100%; kinase still bound, per cent of control (WEE2 (human)): 100%; kinase still bound, per cent of control (MAP4K1 (human)): 100%; kinase still bound, per cent of control (MYLK4 (human)): 100%; kinase still bound, per cent of control (MUSK (human)): 100%; kinase still bound, per cent of control (ERBB2 (human)): 100%; kinase still bound, per cent of control (SYK (human)): 100%; kinase still bound, per cent of control (ITK (human)): 100%; kinase still bound, per cent of control (PDGFRB (human)): 0.05%; kinase still bound, per cent of control (MARK1 (human)): 100%; kinase still bound, per cent of control (MLTK (human)): 6.9%; kinase still bound, per cent of control (DYRK1B (human)): 100%; kinase still bound, per cent of control (FYN (human)): 100%; kinase still bound, per cent of control (RPS6KA5 KD2 (human)): 100%; kinase still bound, per cent of control (STK38L (human)): 100%; kinase still bound, per cent of control (PRKCQ (human)): 100%; kinase still bound, per cent of control (CLK1 (human)): 100%; kinase still bound, per cent of control (ACVR2B (human)): 100%
